# Values of other authors in US20220305028A1, “METHOD FOR PREPARING A LIPOSOMAL COMPOSITION COMPRISING LATANOPROST, AND THE PHARMACOLOGICALLY ACTIVE LIPOSOMAL COMPOSITION FOR OPHTHALMOTHERAPY PREPARED BY THIS METHOD” (CONSORTIUM "UKRINDUSTRY", priority 2021, published 2022).
# Conditions: aqueous ophthalmic drops
compound,measurement,value
"CC(C)OC(=O)CCC/C=C\C[C@@H]1[C@@H](CC[C@@H](O)CCc2ccccc2)[C@H](O)C[C@@H]1O [latanoprost, Latanoprost]",penetration of the latanoprost from the drops through a corneal epithelium,not more than 5 % of the administered amount
